# Patent US6372727B1, “Metalloporphyrin treatment of neurologic disease” (UAB Research Foundation, priority 1999, dated 2002)
# Several values for one entry are separate records, joined by “and”; a condition that tells them apart may be missing. Identical values can stand only once.
# Tests used:
# [1] = MP-catalyzed peroxynitrite decomposition monitored at 302 nm; format: biochemical; conditions: 100 μM peroxynitrite
# Protocol: Peroxynitrite (100 μM) was added to rapidly stirred cuvettes at 37° C. containing the indicated concentrations of MPs in 0.1 M potassium phosphate, pH 7.4. Ascorbate was added to 150 μM where indicated. Peroxynitrite decomposition was monitored at 302 nm using a Hewlett-Packard diode-array spectrophotometer. Apparent rates (kapparents^−1, average of n=3) were plotted versus MP concentration to determine rate constants in M^−1s^−1.
# Reactions contained the indicated concentration of FeTCPPin 1.4 ml of 0.1 M potassium phosphate, pH 7.4 in the absence or presence to 150 μM ascorbic acid. Peroxynitrite (100 μM) was added to rapidly stirred cuvettes at 37° C. and the decay of peroxynitrite was monitored continuously at 302 nm. Decay data were fitted to the equation describing first order decay to obtain apparent decay rates (kapparent sec^−1). Apparent decay rates as a function of FeTCPP were fitted by linear regression and the rate constant was obtained slope of the line.
# Peroxynitrite (100 μM) decomposition was determined at 302 nm using a Hewlett-Packard diode-array spectrophotometer fitted with a temperature-controlled cuvette chamber and a water-driven cuvette stirrer. Bolus additions of peroxynitrite were made to vigorously stirred cuvettes containing varying concentrations of MPs (see Table III) while data were collected at a rate of ten points/sec. […] Each reaction was repeated three times and only the first additions of peroxynitrite were averaged. Data were exported for fitting and plotting. Apparent rates of peroxynitrite decomposition were plotted as a function of metalloporphyrin concentration (as shown in FIG. 5) to determine concentration-independent rate constants at 37° C.
# Rates of peroxynitrite (100 μM) decomposition were determined at different MP concentrations. Ascorbate was added to 150 μM where indicated. […] Apparent rate constants were plotted versus MP concentration (as in FIG. 5A,B) to determine true rate constants in M^−1s^−1±standard error.
# [2] = tested on: ALS-SOD1 (G93A) transgenic mice; experiment: Survival of ALS-SOD1 (G93A) transgenic mice; format: in vivo
# Protocol: FIG. 13A: Transgenic mice (n=9) were injected intraperitoneally with 3 mg/kg/day of a low molecular weight (844.6) synthetic iron porphyrin. […] Treatment was continued until such time that signs of diaphragm weakness (labored breathing) necessitated sacrifice. A control group of transgenic mice was treated with vehicle only (phosphate-buffered saline). FIG. 13B: Transgenic mice were injected intraperitoneally with 1 mg/kg/day of a low molecular weight (844.6) synthetic iron porphyrin. Treatment began at day 60 prior to the onset of symptoms. A control group of transgenic mice was treated with vehicle only (phosphate-buffered saline).
# Mice transgenic for the G93A mutated form of SOD1 are generally accepted as the standard model of motor neuron disease. […] This compound extended the mean survival time by 13 days (from 127 to 140 days) (FIG. 13A).
# A group of G93A mice was treated with 1 mg/kg of FeTCPP intraperitoneally beginning at 60 days of age. As with the control group in FIG. 13A, none of the control group in this test survived past 132 days. However, the probability of survival at 140 days was about 37% and at approximately 180 days survival was still at 20%.
# [3] = Ascorbate oxidation by MPs monitored at 266 nm; format: biochemical; conditions: MP 10 μM, 50 μM ascorbate, 0.1 M potassium phosphate pH 7.4, ± standard error, n=3
# Protocol: (§1) In order to test the hypothesis that Mn(II)- or Fe(II)-porphyrins would be capable of carrying out two-electron reductions of peroxynitrite and thereby decreasing rather than increasing its reactivity, attempts were made to pre-reduce these transition metal-containing MPs prior to addition of peroxynitrite.
# Table V. Ascorbate oxidation by MPs. MPs (10 μM) were added to stirred cuvettes containing 0.1 M potassium phosphate, pH 7.4 and 50 μM ascorbate. Ascorbate oxidation was monitored at 266 nm (ηm=17,700 M^−1cm^−1). Oxidation rates (±standard errors) were determined by fitting the initial linear portion of each curve and averaging the rates (n=3).
# [4] = MP 5 μM, GSH 2 mM, 0.1 M potassium phosphate pH 7.4, 37° C.
# Protocol: Aliquots (14 μl) were removed at 10 min intervals and added to 1.4 of 0.1 M potassium phosphate, pH 7.4 containing 0.2 mM dithionitrobenzoic acid (Ellman's Reagent) and 50 μM EDTA. GSH concentration was determined by the change in 430 nm absorbance. The extinction coefficient at 430 nm was determined to be 13,900 M^−1cm^−1 using a fresh GSH solution standardized by weight.
# as §1
# [5] = Oxidation of metalloporphyrins by peroxynitrite, stopped-flow spectroscopy; format: biochemical; conditions: 37° C., 0.1 M potassium phosphate pH 7.4, pseudo-first order, ± standard error
# Protocol: Peroxynitrite (in 10 mM NaOH) was rapidly mixed with the indicated MPs in 0.1 M potassium phosphate, pH 7.4 at 37° C. using a stopped-flow apparatus as described in Methods. […] A final concentration of 40 μM peroxynitrite was added to 8 μM of each of the MPs MnTBAP, MnPPIX, and FePPIX. […] INSET: Apparent rate constants for oxidation of 8 μM MnTBAP are plotted as a function of peroxynitrite concentration to illustrate how the rate constants listed in Table III were determined.
# Rates of metal loporphyrin oxidation by peroxynitrite were determined using a Bio Sequential SX-18MV Applied Photophysics stopped-flow spectrofluorometer. Solutions of metalloporphyrins in 0.1 M potassium phosphate buffer, pH 7.4 were placed in one syringe and solutions of peroxynitrite in 10 mM NaOH were placed in a second syringe, both of which were submerged in a water bath at 37° C. Changes in metalloporphyrin absorbance as a function of time were recorded following triggering of syringe firing and solution mixing (instrument dead time=2 msec); a total of 1000 data points were collected over intervals ranging from 50 msec to 3 sec. […] Because the absorbance changes associated with loss of +3 forms were greater, rates of metalloporphyrin oxidation were determined by monitoring the disappearance of Mn(III)TMPyP at 462 nm, Mn(III)TBAP at 468 nm, Mn(III)PPIX at 466 nm, and Fe(III)PPIX at 464 nm. Absorbance changes as a function of time were fitted to the equation describing a first order process. The concentration of peroxynitrite was varied from five-fold to forty-fold greater than the fixed metalloporphyrin concentration in order to obtained pseudo first-order conditions (see Table III). Each concentration was injected 10 times and data were averaged automatically prior to fitting.
# Rate constants for stoichiometric metalloporphyrin oxidation by peroxynitrite at 37° C. were determined under pseudo-first order reaction conditions by varying the amount of peroxynitrite added to a fixed concentration of metalloporphyrin (Table III).
# In Table III, the rate of peroxynitrite-mediated oxidation of metalloporphyrins at 37° C. was determined. Apparent rate constants were determined by stopped-flow spectroscopy and plotted versus the peroxynitrite concentration (as shown for MnTBAP in FIG. 4 inset) to determine the bimolecular rate constant in M^−1s^−1±standard error. FePPIX was monitored at 387 nm, MnPPIX at 464 nm, and MnTBAP at 470 nm.
# [6] = 1 mg/kg intraperitoneally beginning at 60 days of age
SMILES,"Rate Constants for MP-Catalyzed Decomposition of Peroxynitrite (pH 7.4, 37° C.) ([1]; absence of added reductants)","probability of survival at 140 days [2, 6]","survival at approximately 180 days [2, 6]","mean survival time ([2]; 5 mg/kg, treatment from onset of symptoms)","extension of mean survival time ([2]; 5 mg/kg, treatment from onset of symptoms, versus vehicle)","progression of motor neuron death in mice ([2]; G93A mutant of Cu,Zn superoxide dismutase transgene)",upper limit of survival time ([2]; administered at the onset of symptoms),Rate of Ascorbate Oxidation [3],"Rate Constants for MP-Catalyzed Decomposition of Peroxynitrite (pH 7.4, 37° C.) ([1]; plus ascorbate 150 μM)",rate of GSH oxidation [4],Rate Constants for Oxidation of MPs by Peroxynitrite [5]
"O=C(O)c1ccc(-c2c3nc(c(-c4ccc(C(=O)O)cc4)c4ccc([n-]4)c(-c4ccc(C(=O)O)cc4)c4nc(c(-c5ccc(C(=O)O)cc5)c5ccc2[n-]5)C=C4)C=C3)cc1.[Fe+2] [FeTCPP, Iron (III) meso 5,10,15,20-tetrakis-(4-carboxy-phenyl) porphyrin]",1.6×10^6 M^−1s^−1 and 2.9 × 10^6 M^−1s^−1 ± 0.4 M^−1s^−1,about 37%,20%,140 days,13 days,slow the progression of motor neuron death,about 148 days,5.8 µM/min,,,
"C[n+]1ccc(-c2c3nc(c(-c4cc[n+](C)cc4)c4ccc([n-]4)c(-c4cc[n+](C)cc4)c4nc(c(-c5cc[n+](C)cc5)c5ccc2[n-]5)C=C4)C=C3)cc1.[Cl-].[Cl-].[Cl-].[Cl-].[Cl-].[Mn+3] [MnTMPyP, Manganese (III) meso-tetra-(N-methyl-4-pyridyl)-porphine chloride]",,,,,,,,6.77 ± 0.33 µM/min,1.8 × 10^6 ± 0.3 M^−1s^−1,22 µM/min,3.6e+06 M⁻¹ s⁻¹
